The values below come from PubChem BioAssay AID328 (DTP/NCI, 2004).

In the test the test system is BDF1 mice, P388 leukemia ip, median survival T/C. Briefly: NCI In Vivo Anticancer Drug Screen. Data for tumor model P388 Leukemia (intraperitoneal) in B6D2F1 (BDF1) mice. The following applies: endpoint: median survival time, higher = longer survival. In a few lines:
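Steps: implant the tumour, treat one group with compound and another with vehicle, record survival, then divide treated by control.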

[1] abbreviates: dose: 25.0 mg/kg/injection, schedule: Q01DX009 (ip), vehicle: saline with Tween-80.
Setting [2] is: dose: 50.0 mg/kg/injection, schedule: Q01DX009 (ip), vehicle: saline with Tween-80.
Where [3] appears, read: dose: 100.0 mg/kg/injection, schedule: Q04DX003 (ip), vehicle: saline with Tween-80.
Where [4] appears, read: dose: 200.0 mg/kg/injection, schedule: Q04DX003 (ip), vehicle: saline with Tween-80.
The mark [5] stands for this setting: dose: 400.0 mg/kg/injection, schedule: Q04DX003 (ip), vehicle: saline with Tween-80.
Setting [6] is: dose: 100.0 mg/kg/injection, schedule: Q01DX009 (ip), vehicle: saline with Tween-80.

Where “and” joins values, the source holds several entries; their conditions need not be identical. Equal values may be shown once. Toxic doses and inconclusive results are not listed. Residues, ends and D or L forms follow the SMILES beside them. *: point of attachment. Trt = c1ccc(C(c2ccccc2)(c2ccccc2)*)cc1; Boc = CC(C)(C)OC(=O)*

Regarding `O=C(O)C1CC[N-]CC1.O=C(O)C1CC[N-]CC1.[NH2-].[NH2-].[Pt+4]`, the T/C is 96 % of control (dose: 50.0 mg/kg/injection, schedule: Q01DX009 (ip), vehicle: water); 96 % of control (dose: 100.0 mg/kg/injection, schedule: Q01DX009 (ip), vehicle: water); 113 % of control (dose: 400.0 mg/kg/injection, schedule: Q01DX009 (ip), vehicle: water).

Consider `C(#C[P+]1(c2ccccc2)C=C(c2ccccc2)OC(c2ccccc2)=C1)c1ccccc1`, for which the T/C (dose: 50.0 mg/kg/injection, schedule: Q01DX005 (ip), vehicle: saline with Tween-80) is 110 % of control.

For the compound `CO[C@H]1C[C@H](O[C@H]2CC[C@]3(C=O)[C@H]4CC[C@]5(C)[C@@H](C6=CC(=O)OC6)CC[C@]5(O)[C@@H]4CC[C@]3(O)C2)O[C@H](C)[C@H]1O`, the T/C is 95 % of control (dose: 0.62 mg/kg/injection, schedule: Q01DX010 (ip), vehicle: steriod suspending solution); 90 % of control (dose: 1.25 mg/kg/injection, schedule: Q01DX010 (ip), vehicle: steriod suspending solution); 95 % of control (dose: 2.5 mg/kg/injection, schedule: Q01DX010 (ip), vehicle: steriod suspending solution); 90 % of control (dose: 5.0 mg/kg/injection, schedule: Q01DX010 (ip), vehicle: steriod suspending solution).

For `O=C(NP(=O)(N1CC1)N1CC1)OCc1ccccc1`, the T/C runs as follows: (dose: 100.0 mg/kg/injection, schedule: Q01DX009 (ip), vehicle: alcohol) 100 % of control; (dose: 100.0 mg/kg/injection, schedule: Q04DX003 (ip), vehicle: alcohol) 95 % of control; (dose: 200.0 mg/kg/injection, schedule: Q01DX009 (ip), vehicle: alcohol) 100 % of control; (dose: 200.0 mg/kg/injection, schedule: Q04DX003 (ip), vehicle: alcohol) 110 % of control; (dose: 400.0 mg/kg/injection, schedule: Q01DX009 (ip), vehicle: alcohol) 86 % of control; (dose: 400.0 mg/kg/injection, schedule: Q04DX003 (ip), vehicle: alcohol) 100 % of control.

Turning to `CCCCCNC(=O)Nc1cccc(Cl)c1C`, the T/C is, setting by setting: (dose: 6.25 mg/kg/injection, schedule: Q01DX009 (ip), vehicle: saline with Tween-80) 116 % of control; (dose: 12.5 mg/kg/injection, schedule: Q01DX009 (ip), vehicle: saline with Tween-80) 109 % of control; under setting [1], 108 % of control; under setting [2], 99 % of control.

For `CC(C)(C)OC(=O)NCCCCC(NC(=O)CNC(=O)C(CSC(c1ccccc1)(c1ccccc1)c1ccccc1)NC(=O)OC(C)(C)C)C(=O)O` (stereo not given) (Boc-Cys(Trt)-Gly-Lys(Boc)-OH; configuration not given here), the T/C runs as follows: (dose: 25.0 mg/kg/injection, schedule: Q04DX003 (ip), vehicle: saline) 100 % of control; (dose: 50.0 mg/kg/injection, schedule: Q04DX003 (ip), vehicle: saline) 104 % of control; (dose: 100.0 mg/kg/injection, schedule: Q04DX003 (ip), vehicle: saline) 104 % of control.

In the case of `Cc1nc2ccccc2nc1CI`, the T/C is, setting by setting: (dose: 2.9 mg/kg/injection, schedule: Q01DX009 (ip), vehicle: saline) 110 % of control; (dose: 4.5 mg/kg/injection, schedule: Q01DX009 (ip), vehicle: saline) 120 % of control; (dose: 10.0 mg/kg/injection, schedule: Q04DX003 (ip), vehicle: saline) 115 % of control; (dose: 17.0 mg/kg/injection, schedule: Q01DX009 (ip), vehicle: saline) 100 % of control and 116 % of control; (dose: 20.0 mg/kg/injection, schedule: Q04DX003 (ip), vehicle: saline) 110 % of control; (dose: 26.0 mg/kg/injection, schedule: Q01DX009 (ip), vehicle: saline) 110 % of control. Further, the T/C (dose: 30.0 mg/kg/injection, schedule: Q01DX001 (ip), vehicle: Klucel (hydroxypropylcellulose) (HPC)) was 88 % of control; the T/C (dose: 40.0 mg/kg/injection, schedule: Q01DX009 (ip), vehicle: saline) was 100 % of control and 116 % of control; the T/C (dose: 40.0 mg/kg/injection, schedule: Q04DX003 (ip), vehicle: saline) was 110 % of control.

Turning to `CCN(CC)S(=O)(=O)c1cccc(C(O)CC(O)(C(F)(F)F)C(F)(F)F)c1` (stereo not given), the T/C by setting is: (dose: 100.0 mg/kg/injection, schedule: Q04DX003 (ip), vehicle: other) 95 % of control; (dose: 200.0 mg/kg/injection, schedule: Q04DX003 (ip), vehicle: other) 86 % of control; (dose: 400.0 mg/kg/injection, schedule: Q04DX003 (ip), vehicle: other) 90 % of control.

As to `COc1ccc(OC)c(/C=C/c2ccc3ccccc3n2)c1`, the T/C was 105 % of control (dose: 50.0 mg/kg/injection, schedule: Q04DX003 (ip), vehicle: saline with Tween-80); 100 % of control and 105 % of control under setting [3]; 110 % of control under setting [4]; 100 % of control under setting [5].

For the compound `C(=C\CN(Cc1ccccc1)Cc1ccccc1)/CN(Cc1ccccc1)Cc1ccccc1`, the T/C runs as follows: (dose: 50.0 mg/kg/injection, schedule: Q01DX009 (ip), vehicle: Klucel (hydroxypropylcellulose) (HPC)) 104 % of control; (dose: 100.0 mg/kg/injection, schedule: Q01DX009 (ip), vehicle: Klucel (hydroxypropylcellulose) (HPC)) 104 % of control; (dose: 200.0 mg/kg/injection, schedule: Q01DX009 (ip), vehicle: Klucel (hydroxypropylcellulose) (HPC)) 95 % of control.

As to `c1ccc2n[se]nc2c1`, the T/C is, setting by setting: (dose: 1.56 mg/kg/injection, schedule: Q04DX003 (ip), vehicle: saline) 108 % of control; (dose: 3.13 mg/kg/injection, schedule: Q04DX003 (ip), vehicle: saline) 108 % of control and 109 % of control; (dose: 6.25 mg/kg/injection, schedule: Q04DX003 (ip), vehicle: saline) 106 % of control and 109 % of control; (dose: 12.5 mg/kg/injection, schedule: Q04DX003 (ip), vehicle: saline) 104 % of control.

Consider `COc1cc(OC)c(NC(=S)Nc2cc(C)ccc2OC)cc1Cl`, for which the T/C is 97 % of control (dose: 12.5 mg/kg/injection, schedule: Q01DX009 (ip), vehicle: DMSO) and 93 % of control (dose: 25.0 mg/kg/injection, schedule: Q01DX009 (ip), vehicle: DMSO).

`CCOC(=O)c1[nH]c(C)nc1/N=N/N(C)C`: the T/C runs as follows: (dose: 12.5 mg/kg/injection, schedule: Q01DX009 (ip), vehicle: saline) 114 % of control; (dose: 25.0 mg/kg/injection, schedule: Q01DX009 (ip), vehicle: saline) 103 % of control and 121 % of control; (dose: 50.0 mg/kg/injection, schedule: Q01DX009 (ip), vehicle: saline) 111 % of control; (dose: 200.0 mg/kg/injection, schedule: Q01DX009 (ip), vehicle: saline) 154 % of control and 180 % of control.

Consider `Cn1nnnc1[N-]Cc1ccccc1.[Au+].c1ccc([PH+](c2ccccc2)c2ccccc2)cc1`, for which the T/C runs as follows: (dose: 12.5 mg/kg/injection, schedule: Q01DX001 (ip), vehicle: saline with Tween-80) 111 % of control; (dose: 25.0 mg/kg/injection, schedule: Q01DX001 (ip), vehicle: saline with Tween-80) 111 % of control; (dose: 50.0 mg/kg/injection, schedule: Q01DX001 (ip), vehicle: saline with Tween-80) 123 % of control.

Consider `COc1ccc(CC(=O)Cc2ccc(OC)c(OC)c2)cc1OC`, for which the T/C is 104 % of control under setting [1]; 113 % of control under setting [2]; 113 % of control and 123 % of control under setting [6]; 109 % of control under setting [3]; 95 % of control and 120 % of control (dose: 200.0 mg/kg/injection, schedule: Q01DX009 (ip), vehicle: saline with Tween-80); 104 % of control under setting [4]. The T/C (dose: 400.0 mg/kg/injection, schedule: Q01DX009 (ip), vehicle: saline with Tween-80) is 118 % of control and the T/C under setting [5] is 90 % of control.

For the compound `CCCCNc1ccc([N+](=O)[O-])cc1[N+](=O)[O-]`, the T/C by setting is: (dose: 50.0 mg/kg/injection, schedule: Q01DX009 (ip), vehicle: other) 95 % of control; (dose: 100.0 mg/kg/injection, schedule: Q01DX009 (ip), vehicle: other) 101 % of control; (dose: 200.0 mg/kg/injection, schedule: Q01DX009 (ip), vehicle: other) 105 % of control.

With `CCCCOCN(CCCc1ccccc1)COCCCC`, the T/C under setting [6] was 121 % of control.
